# Reference: patent publication US20090253209A1, “Method of obtaining BZM purity, quantity of [123I]IBZM labeled ligand and quantity of BZM free ligand” (ATOMIC ENERGY COUNCIL - INSTITUTE OF NUCLEAR ENERGY RESEARCH, priority 2008, published 2009)
# What was measured:
# [1] = solution stability test of BZM solution by HPLC; type: physicochemical; settings: BZM dissolved in DMSO, room temperature, three days
# Text: (7) For the solution stability test, a sum of BZM solution is put under a room temperature to be processed with HPLC analysis for three days, as shown in FIG. 12. Consequently, the difference of BZM retention time is 0.64%; the resolution difference is 5.81%; the purity difference is −0.37%; the difference of a linear least square regression slope is −3.18%; and linear correlation coefficients are all greater than 0.9997.
# [2] = test system: D2/D3 receptor (D2/D3R); settings: in rats; compared with [^123I] IBZM; cited from earlier work
smiles,measurement,setting,value
"CCN1CCC[C@H]1CNC(=O)c1c(O)cccc1OC [BZM, (S)-(-)-2-hydroxy-6-methoxy-N-[(1-ethyl-2-pyrrolidinyl)methyl]benzamide]",solution stability (in words),[1],good stability
same,purity difference (solution stability),[1]; HPLC analysis,−0.37%
same,bonding to D2/D3 receptor relative to [^123I] IBZM,[2],far small bonding to D2/D3 receptor (D2/D3R) than [^123I] IBZM
